In patent publication US7612082B2, “Prostaglandin EP4 antagonists” (Allergan, Inc., priority 2004, dated 2009):

Legend:
hDP = molecular target: T1, hDP (Homo sapiens, UniProt Q13258); test: Calcium signal (FLIPR) assay, hDP (HEK); assay type: cell-based; details: for Kb: antagonism of standard agonist BW245C, HEK cells coexpress chimeric Gqs5
T1 construct: expressed in transfected cells; host or cells: HEK (by analogy HEK-293(EBNA))
T1 sequence (Q13258 1-359): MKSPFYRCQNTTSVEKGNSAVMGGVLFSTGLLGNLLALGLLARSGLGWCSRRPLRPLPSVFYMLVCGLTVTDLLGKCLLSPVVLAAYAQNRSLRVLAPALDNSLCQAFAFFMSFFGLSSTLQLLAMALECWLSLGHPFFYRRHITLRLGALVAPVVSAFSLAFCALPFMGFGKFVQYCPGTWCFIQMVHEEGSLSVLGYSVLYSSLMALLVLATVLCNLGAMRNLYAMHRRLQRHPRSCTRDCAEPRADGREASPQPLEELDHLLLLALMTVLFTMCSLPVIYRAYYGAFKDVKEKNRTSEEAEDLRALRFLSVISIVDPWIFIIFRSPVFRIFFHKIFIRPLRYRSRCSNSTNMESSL
Protocol: (§1) Cells were then washed twice with HBSS-HEPES buffer (Hanks Balanced Salt Solution without bicarbonate and phenol red, 20 mM HEPES, pH 7.4) using a Denley Cellwash plate washer (Labsystems; Franklin, Mass.). After 45-60 min of dye-loading in the dark using the calcium-sensitive dye Fluo-4 AM, at a final concentration of 2 μM, plates were washed four times with HBSS-HEPES buffer to remove excess dye and leaving 100 μl buffer in each well. Plates were then placed into a FLIPR™ instrument and were allowed to equilibrate at 37° C. Drug solution was added in a 50 μl volume to each well to give the desired final concentration. Cells were excited with an Argon laser at 488 nm, and emission was measured through a 510-570 nm bandwidth emission filter (FLIPR™, Molecular Devices, Sunnyvale, Calif.). The peak increase in fluorescence intensity was recorded for each well. […] A similar analysis was carried out for the other prostaglandin receptors, and for compound 2.

human EP4 receptor = molecular target: T2, human EP4 receptor (Homo sapiens, UniProt P35408); test: Effect on Prostaglandin E2 induced calcium signal (FLIPR), hEP4 (HEK); assay type: cell-based
T2 construct: expressed in transfected cells; host or cells: HEK-293(EBNA)
Protocol: (§2) Cells were then washed twice with HBSS-HEPES buffer (Hanks Balanced Salt Solution without bicarbonate and phenol red, 20 mM HEPES, pH 7.4) using a Denley Cellwash plate washer (Labsystems; Franklin, Mass.). After 45-60 min of dye-loading in the dark using the calcium-sensitive dye Fluo-4 AM, at a final concentration of 2 μM, plates were washed four times with HBSS-HEPES buffer to remove excess dye and leaving 100 μl buffer in each well. Plates were then placed into a FLIPR™ instrument and were allowed to equilibrate at 37° C. […] The peak increase in fluorescence intensity was recorded for each well.

hEP2 = molecular target: T3, hEP2 (Homo sapiens, UniProt P43116); test: Calcium signal (FLIPR) assay, hEP2 (HEK); assay type: cell-based
T3 construct: expressed in transfected cells; host or cells: HEK (by analogy HEK-293(EBNA))
Protocol: as §2

hEP3A = molecular target: T4, hEP3A (Homo sapiens, UniProt P43115); test: Calcium signal (FLIPR) assay, hEP3A (HEK); assay type: cell-based
T4 construct: expressed in transfected cells; host or cells: HEK (by analogy HEK-293(EBNA))
T4 sequence (P43115 1-390): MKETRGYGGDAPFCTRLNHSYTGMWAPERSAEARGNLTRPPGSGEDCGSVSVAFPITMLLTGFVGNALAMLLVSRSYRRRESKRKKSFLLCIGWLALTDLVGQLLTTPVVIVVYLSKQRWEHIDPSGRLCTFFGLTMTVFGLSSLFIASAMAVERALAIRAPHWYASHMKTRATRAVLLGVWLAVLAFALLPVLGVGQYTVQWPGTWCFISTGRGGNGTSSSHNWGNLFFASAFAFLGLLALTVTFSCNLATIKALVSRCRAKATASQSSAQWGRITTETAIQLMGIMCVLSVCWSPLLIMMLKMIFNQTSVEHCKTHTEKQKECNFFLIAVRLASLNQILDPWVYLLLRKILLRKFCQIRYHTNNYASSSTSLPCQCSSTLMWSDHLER
Protocol: as §2

hFP = molecular target: T5, hFP (Homo sapiens, UniProt P43088); test: Calcium signal (FLIPR) assay, hFP (HEK); assay type: cell-based
T5 construct: expressed in transfected cells; host or cells: HEK (by analogy HEK-293(EBNA))
Protocol: as §2

[1] = Capsule or suppository given daily to patient suffering from cancer (Example 27); assay type: in vivo, human
Protocol: A capsule or suppository comprising compound 1 is administered daily to a patient suffering from cancer.

hIP = molecular target: T6, hIP (Homo sapiens, UniProt P43119); test: Calcium signal (FLIPR) assay, hIP (HEK); assay type: cell-based; details: antagonism of standard agonist Carbacyclin; HEK cells
T6 construct: expressed in transfected cells; host or cells: HEK (by analogy HEK-293(EBNA))
Protocol: as §2

hEP1 = molecular target: T7, hEP1 (Homo sapiens, UniProt P34995); test: Calcium signal (FLIPR) assay, hEP1 (HEK); assay type: cell-based
T7 construct: expressed in transfected cells; host or cells: HEK (by analogy HEK-293(EBNA))
T7 sequence (P34995 1-402): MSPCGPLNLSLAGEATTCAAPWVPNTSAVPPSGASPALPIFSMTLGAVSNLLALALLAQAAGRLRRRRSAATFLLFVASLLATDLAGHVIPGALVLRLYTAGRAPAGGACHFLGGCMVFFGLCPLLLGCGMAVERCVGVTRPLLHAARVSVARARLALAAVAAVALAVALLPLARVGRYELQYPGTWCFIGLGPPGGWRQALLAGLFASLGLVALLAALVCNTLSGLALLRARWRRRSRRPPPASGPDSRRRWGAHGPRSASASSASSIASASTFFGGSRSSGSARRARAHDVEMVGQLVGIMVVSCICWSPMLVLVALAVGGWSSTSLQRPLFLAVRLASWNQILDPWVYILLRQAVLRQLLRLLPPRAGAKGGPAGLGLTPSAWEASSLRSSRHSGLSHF
Protocol: as §1

hTP = molecular target: T8, hTP (Homo sapiens, UniProt P21731); test: Calcium signal (FLIPR) assay, hTP (HEK); assay type: cell-based; details: for Kb: antagonism of standard agonist U-46619, HEK cells
T8 construct: expressed in transfected cells; host or cells: HEK (by analogy HEK-293(EBNA))
T8 sequence (P21731 1-343): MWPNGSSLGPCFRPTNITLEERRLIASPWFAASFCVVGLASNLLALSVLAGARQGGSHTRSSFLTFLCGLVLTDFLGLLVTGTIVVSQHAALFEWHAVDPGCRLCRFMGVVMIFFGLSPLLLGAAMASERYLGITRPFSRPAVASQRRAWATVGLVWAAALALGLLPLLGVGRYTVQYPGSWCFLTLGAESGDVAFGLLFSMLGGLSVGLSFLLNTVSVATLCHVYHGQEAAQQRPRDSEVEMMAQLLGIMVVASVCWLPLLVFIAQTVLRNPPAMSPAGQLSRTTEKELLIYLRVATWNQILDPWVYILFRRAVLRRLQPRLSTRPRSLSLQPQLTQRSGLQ
Protocol: as §1

[2] = Capsule given daily to patient suffering from osteoporosis (Example 25); assay type: in vivo, human
Protocol: A capsule comprising compound 2 is administered daily to a patient suffering from osteoporosis.

[3] = Tablet given to person suffering from migraine headache (Example 26); assay type: in vivo, human; details: person suffering from a migraine headache
Protocol: A tablet comprising compound 2 is administered to a person suffering from a migraine headache.

T6 sequence (P43119 whole entry): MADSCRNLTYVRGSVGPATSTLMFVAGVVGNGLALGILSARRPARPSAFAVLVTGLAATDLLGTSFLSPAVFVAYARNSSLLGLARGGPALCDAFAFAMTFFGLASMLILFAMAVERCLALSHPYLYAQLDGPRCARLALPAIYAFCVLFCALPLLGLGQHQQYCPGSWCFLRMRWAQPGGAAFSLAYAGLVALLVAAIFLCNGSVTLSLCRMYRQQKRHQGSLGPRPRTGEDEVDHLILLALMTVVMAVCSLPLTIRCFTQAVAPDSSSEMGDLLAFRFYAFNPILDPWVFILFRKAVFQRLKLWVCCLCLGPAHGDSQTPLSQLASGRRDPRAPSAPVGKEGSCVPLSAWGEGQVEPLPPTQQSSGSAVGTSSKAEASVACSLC
T2 sequence (P35408 whole entry): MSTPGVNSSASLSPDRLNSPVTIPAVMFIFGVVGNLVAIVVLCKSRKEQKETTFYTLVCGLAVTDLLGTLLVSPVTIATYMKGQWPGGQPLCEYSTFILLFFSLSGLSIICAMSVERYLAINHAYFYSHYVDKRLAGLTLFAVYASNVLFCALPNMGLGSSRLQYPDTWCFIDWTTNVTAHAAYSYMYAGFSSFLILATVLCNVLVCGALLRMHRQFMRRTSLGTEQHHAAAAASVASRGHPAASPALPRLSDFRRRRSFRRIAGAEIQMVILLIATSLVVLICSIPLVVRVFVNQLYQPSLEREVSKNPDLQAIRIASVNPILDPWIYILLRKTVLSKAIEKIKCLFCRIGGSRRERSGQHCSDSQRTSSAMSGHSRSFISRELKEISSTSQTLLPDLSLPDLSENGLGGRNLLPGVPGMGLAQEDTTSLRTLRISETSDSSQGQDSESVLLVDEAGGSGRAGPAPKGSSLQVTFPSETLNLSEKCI
T5 sequence (P43088 whole entry): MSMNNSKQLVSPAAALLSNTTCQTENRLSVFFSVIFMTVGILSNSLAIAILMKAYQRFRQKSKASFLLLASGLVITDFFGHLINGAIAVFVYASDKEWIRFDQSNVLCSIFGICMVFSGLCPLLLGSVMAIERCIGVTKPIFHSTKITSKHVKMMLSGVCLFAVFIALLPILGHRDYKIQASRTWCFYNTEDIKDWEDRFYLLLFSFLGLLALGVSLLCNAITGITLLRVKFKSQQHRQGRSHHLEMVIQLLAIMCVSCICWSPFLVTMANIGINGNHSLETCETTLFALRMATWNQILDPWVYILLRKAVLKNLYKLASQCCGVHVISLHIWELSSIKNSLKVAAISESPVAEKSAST
T3 sequence (P43116 whole entry): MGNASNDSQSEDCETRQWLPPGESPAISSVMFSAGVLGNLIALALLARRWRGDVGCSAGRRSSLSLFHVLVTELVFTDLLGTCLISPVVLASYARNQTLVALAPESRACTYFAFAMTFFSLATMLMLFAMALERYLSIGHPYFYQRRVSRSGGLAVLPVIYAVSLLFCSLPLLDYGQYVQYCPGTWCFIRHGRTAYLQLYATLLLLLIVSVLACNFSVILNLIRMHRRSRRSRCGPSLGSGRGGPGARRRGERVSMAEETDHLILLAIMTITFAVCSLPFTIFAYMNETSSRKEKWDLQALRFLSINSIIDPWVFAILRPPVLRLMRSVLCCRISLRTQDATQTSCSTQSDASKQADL

Kb (human EP4 receptor) [µM] | Kb (hDP) [µM] | Kb (hEP2) [µM] | Kb (hEP3A) [µM] | Kb (hFP) [µM] | Kb (hIP) [µM] | Kb (hEP1) [µM] | Kb (hTP) [µM] | SMILES | also measured
0.101 | > 10 | > 10 | > 10 | > 10 | > 10 | > 10 | > 10 | CN(CC(=O)Nc1c2c(nc3c1CCC3)CCCC2)Cc1ccccc1 [Compound 1] | Patient's condition [1]: Improvement in the patient's condition occurs
0.172 | > 10 | > 10 | > 10 | > 10 | > 10 | > 10 | > 10 | CN(CC(=O)Nc1c2c(nc3ccccc13)CCC2)Cc1ccccc1 [Compound 2] | Bone density [2]: Increase in bone density or reduction in bone density loss occurs; Pain [3]: Significantly less pain is experienced by the patient

Continued, compound first:

SMILES | Kb (human EP4 receptor) [µM] | Kb (hDP) [µM] | Kb (hEP2) [µM] | Kb (hEP3A) [µM] | Kb (hFP) [µM] | Kb (hIP) [µM] | Kb (hEP1) [µM] | Kb (hTP) [µM] | also measured
O=C(O)CCCCCCC1C(=O)NC(=O)N1CCC(O)C1CCCCC1 (stereo not shown) [BW245C, reference compound] |  |  |  |  |  |  |  |  | EC50 (hDP; agonist potency, calcium signal, cells coexpress chimeric Gqs5, read-out: Standard agonist hDP (HEK)): 0.006 µM
CCCCC[C@H](O)/C=C/[C@@H]1[C@@H](C/C=C\CCCC(=O)O)[C@H]2CO[C@@H]1C2 [Compound U-46619, U-46619, reference compound] |  |  |  |  |  |  |  |  | EC50 (hTP; agonist potency, calcium signal, read-out: Standard agonist hTP (HEK)): 0.0003 µM
CCCCC[C@H](O)/C=C/[C@H]1[C@H](O)CC(=O)[C@@H]1C/C=C\CCCC(=O)O [PGE2, Prostaglandin E2, reference compound] |  |  |  |  |  |  |  |  | EC50 (hEP1; agonist potency, calcium signal, read-out: Standard agonist hEP1 (HEK)): 0.0003 µM
